Results reported in US10308628B2, “Heterocyclic compounds and methods for their use” (NOVARTIS AG, priority 2015, dated 2019).
pKi: −log10 of the molar value.

The compounds below were run against human AT2 receptor (Homo sapiens (Human), UniProt P50052) (assay: AT2 receptor binding assay ([125I]CGP 42112A displacement, CHO-K1 cell membranes)). Details: membranes of CHO-K1 cells stably expressing human AT2 receptor; 0.05 nM [125I]CGP 42112A; Ki derived from IC50 by Cheng-Prussoff equation.
Method: Reagents were purchased from Sigma-Aldrich, unless otherwise specified. Dialyzed fetal bovine serum (FBS) was from Life Technologies (cat. no. 10073772). Valiscreen® human angiotensin AT2 receptor cell line (cat. no. ES-070-C), [^125I]CGP 42112A (cat. no. NEX324025UC) and MicroScint™ 40 (cat. no. 6013641) were purchased from PerkinElmer. CGP 42112A (cat. no. 2569) and PD 123,319 ditrifluoroacetate (cat. no. 1361) were from Tocris Biosciences.
6. […] Compound Preparation
Compounds were prepared from 10 mM stock solutions in 100% DMSO. Dilutions were made using electronic multichannel pipettes.
Controls • Total binding (high control) was determined in the absence of unlabelled ligand. A solution of 10% DMSO in assay buffer was prepared. • Non-specific binding (low control) was determined in the presence of a vast excess (10 μM) of PD 123,319. 1 mM stock solution of PD 123,319 in water was diluted […] with 10% DMSO in assay buffer.
15 μL compound solution was transferred to duplicate wells of assay plate. 5 compounds were tested per plate. 15 μL control solutions were transferred to columns 1 and 12 of assay plate.

Sequence of human AT2 receptor (P50052 whole entry): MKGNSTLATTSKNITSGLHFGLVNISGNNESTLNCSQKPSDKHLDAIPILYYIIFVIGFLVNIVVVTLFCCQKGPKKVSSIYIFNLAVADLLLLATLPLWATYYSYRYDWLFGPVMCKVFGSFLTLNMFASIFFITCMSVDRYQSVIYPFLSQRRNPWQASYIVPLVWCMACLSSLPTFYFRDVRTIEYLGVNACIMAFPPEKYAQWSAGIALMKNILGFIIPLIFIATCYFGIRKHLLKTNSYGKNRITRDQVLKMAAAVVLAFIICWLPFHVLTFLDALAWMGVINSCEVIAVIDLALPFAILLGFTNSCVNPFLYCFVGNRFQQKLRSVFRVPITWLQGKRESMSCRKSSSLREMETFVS

Row | SMILES | pKi
1 | O=C(O)[C@@H]1C[C@H](N2CCCOc3cc(F)c(F)cc32)CCN1C(=O)C(c1ccccc1)c1ccccc1 [Compound 1, (2S,4R)-4-(7,8-Difluoro-3,4-dihydrobenzo[b][1,4]oxazepin-5 (2H)-yl)-1-(2,2-diphenylacetyl)piperidine-2-carboxylic acid] | 8.15
2 | O=C(O)[C@@H]1C[C@H](N2CCCOc3ccccc32)CCN1C(=O)C(c1ccccc1)c1ccccc1 [Compound 4, (2S,4R)-4-(3,4-Dihydrobenzo[b][1,4]oxazepin-5(2H)-yl)-1-(2,2-diphenylacetyl)piperidine-2-carboxylic acid] | 7.82
3 | COc1ccc2c(c1)CCCCN2[C@@H]1CCN(C(=O)C(c2ccccc2)c2ccccc2)[C@H](C(=O)O)C1 [Compound 5, (2S,4R)-1-(2,2-Diphenylacetyl)-4-(7-methoxy-2,3,4,5-tetrahydro-1H-benzo[b]azepin-1-yl)piperidine-2-carboxylic acid] | 8.05
4 | O=C(O)[C@@H]1C[C@H](N2CCCOc3ccc(F)cc32)CCN1C(=O)C(c1ccccc1)c1ccccc1 [Compound 3, (2S,4R)-1-(2,2-Diphenylacetyl)-4-(7-fluoro-3,4dihydrobenzo[b][1,4]oxazepin-5(2H)-yl)piperidine-2-carboxylic acid] | 7.77
5 | O=C(O)[C@@H]1C[C@H](N2CCCOc3cc(F)ccc32)CCN1C(=O)C(c1ccccc1)c1ccccc1 [Compound 2, (2S,4R)-1-(2,2-Diphenylacetyl)-4-(8-fluoro-3,4 dihydrobenzo[b][1,4]oxazepin-5(2H)-yl)piperidine-2-carboxylic acid] | 8.05
